Consider 13 compounds from PubChem BioAssay (NCI).

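All cell lines were grown in 96-well plates and treated with compound for 48 hours. Definition used: TGI = concentration required for complete inhibition of growth.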

Test systems include UACC-62 melanoma; SK-MEL-2 melanoma; MDA-MB-231 breast; CAKI-1 renal; HOP-92 NSCLC; SF-295 CNS; SK-MEL-5 melanoma; SN12C renal; DU-145 prostate; HOP-62 NSCLC.
What all share (experiment): growth of human tumour cells (NCI), 48 h

Consider `Nc1ccc2c(c1)C(=O)c1ccccc1-2`, for which the TGI is > 100 µM in the assay with UACC-62 melanoma; > 100 µM in the assay on SK-MEL-2 melanoma; > 100 µM with MDA-MB-231 breast; > 100 µM with CAKI-1 renal; 91 µM with HOP-92 NSCLC; > 100 µM in the assay on SF-295 CNS. For the same compound, the TGI in the assay with SK-MEL-5 melanoma, with SN12C renal, in the assay on DU-145 prostate and in the assay with HOP-62 NSCLC was > 100 µM each time.

Regarding `O=C(C1=C(C(=O)c2ccccc2)SC2(S1)C(C(=O)c1ccccc1)=C(C(=O)c1ccccc1)Sc1c2ssc1=O)c1ccccc1`, the TGI in the assay on UACC-62 melanoma was 44.9 µM; in the assay on SK-MEL-2 melanoma, > 100 µM; in the assay on MDA-MB-231 breast, > 100 µM; in the assay with CAKI-1 renal it was > 100 µM; in the assay with HOP-92 NSCLC, > 100 µM; in the assay with SF-295 CNS it was > 100 µM. Moreover, the TGI in the assay with SK-MEL-5 melanoma, in the assay with SN12C renal, in the assay with DU-145 prostate and in the assay on HOP-62 NSCLC was > 100 µM in each case.

For `N#CC1=C(N)C(C#N)(C#N)C(c2ccc(F)cc2)C=C1C1CC1` (stereo not given), the TGI with UACC-62 melanoma stood at 21.5 µM; in the assay on SK-MEL-2 melanoma it was 19.4 µM; in the assay with MDA-MB-231 breast, 33.1 µM; with CAKI-1 renal, 28.2 µM; in the assay on HOP-92 NSCLC it was 27 µM; in the assay with SF-295 CNS, 25.8 µM. The TGI in the assay on SK-MEL-5 melanoma amounted to 16.2 µM; in the assay with SN12C renal it was 10.3 µM; in the assay with DU-145 prostate, 25.6 µM; with HOP-62 NSCLC it was 25.8 µM.

Take `N#Cc1c(Nc2ccc(F)cc2)[n+]([O-])c2ccc(Cl)cc2[n+]1[O-]`: the TGI in the assay with UACC-62 melanoma worked out at 17.2 µM; in the assay on SK-MEL-2 melanoma, 77.9 µM; in the assay with MDA-MB-231 breast, 16.7 µM; in the assay on CAKI-1 renal, 20.9 µM; in the assay with HOP-92 NSCLC, 5.16 µM; with SF-295 CNS it was 4.95 µM. Besides, the TGI in the assay on SK-MEL-5 melanoma is 23.1 µM; in the assay on SN12C renal it was 13.4 µM; in the assay on DU-145 prostate it was > 100 µM; in the assay with HOP-62 NSCLC, 42.2 µM.

Regarding `C=CCC(CNC(=O)OCc1ccccc1)O[Si](C)(C)C(C)(C)C` (stereo not given), the TGI in the assay with UACC-62 melanoma is > 100 µM; in the assay on SK-MEL-2 melanoma, 34.9 µM; in the assay with MDA-MB-231 breast, 37 µM; with CAKI-1 renal it was > 100 µM; with HOP-92 NSCLC, > 100 µM; in the assay on SF-295 CNS it was > 100 µM. Moreover, the TGI in the assay with SK-MEL-5 melanoma is 31.8 µM; in the assay on SN12C renal, > 100 µM; in the assay with DU-145 prostate it was > 100 µM; in the assay on HOP-62 NSCLC, > 100 µM.

Turning to `O=C(O)C(CCc1ccccn1)c1ccccc1` (stereo not given), the TGI in the assay with UACC-62 melanoma, in the assay on SK-MEL-2 melanoma, in the assay on MDA-MB-231 breast, in the assay on CAKI-1 renal, with HOP-92 NSCLC and with SF-295 CNS was > 100 µM each time. Further, the TGI in the assay on SK-MEL-5 melanoma, with SN12C renal, in the assay on DU-145 prostate and in the assay on HOP-62 NSCLC was > 100 µM throughout.

With `CCOC(=O)c1cc2c(OC(C)=O)ccc(OC(C)=O)c2s1`, the TGI amounted to 4.08 µM in the assay on UACC-62 melanoma; 7.72 µM in the assay on SK-MEL-2 melanoma; 4.64 µM with MDA-MB-231 breast; 8.46 µM with CAKI-1 renal; 3.16 µM in the assay on HOP-92 NSCLC; 18.3 µM in the assay with SF-295 CNS. For the same compound, the TGI with SK-MEL-5 melanoma was 6.69 µM; with SN12C renal it was 5.11 µM; in the assay with DU-145 prostate, 17.1 µM; in the assay on HOP-62 NSCLC, 23.9 µM.

With `Cc1cc2ccccc2c[n+]1CC(O)C[n+]1cc2ccccc2cc1C`, the TGI in the assay with UACC-62 melanoma, in the assay with SK-MEL-2 melanoma, in the assay on MDA-MB-231 breast, in the assay with CAKI-1 renal, with HOP-92 NSCLC and with SF-295 CNS was > 100 µM throughout. The TGI with SK-MEL-5 melanoma, with SN12C renal, in the assay on DU-145 prostate and in the assay on HOP-62 NSCLC was > 100 µM throughout.

Regarding `c1ccc(CCN2CCCCCC2)nc1`, the TGI in the assay on UACC-62 melanoma, in the assay on SK-MEL-2 melanoma, with MDA-MB-231 breast, in the assay on CAKI-1 renal, with HOP-92 NSCLC and in the assay on SF-295 CNS was > 100 µM throughout. Also, the TGI in the assay with SK-MEL-5 melanoma, with SN12C renal, in the assay on DU-145 prostate and in the assay with HOP-62 NSCLC was > 100 µM each time.

For `CC(=O)N(CN1C(=O)CCC1C(=O)O)c1ccccc1` (stereo not given), the TGI in the assay on UACC-62 melanoma, with SK-MEL-2 melanoma, in the assay with MDA-MB-231 breast, in the assay with CAKI-1 renal, in the assay on HOP-92 NSCLC and in the assay on SF-295 CNS was > 100 µM throughout. The TGI in the assay on SK-MEL-5 melanoma, in the assay with SN12C renal, in the assay on DU-145 prostate and in the assay with HOP-62 NSCLC was > 100 µM throughout.

In the case of `O=C1/C(=C/c2ccccc2)CCc2ccc(Cl)nc21`, the TGI came to 22.8 µM in the assay with UACC-62 melanoma; 37.8 µM in the assay on SK-MEL-2 melanoma; 40.6 µM in the assay with MDA-MB-231 breast; 10.3 µM with CAKI-1 renal; 38.8 µM with HOP-92 NSCLC; 38.2 µM in the assay on SF-295 CNS. In addition, the TGI in the assay with SK-MEL-5 melanoma was 20.1 µM; in the assay on SN12C renal it was 18.6 µM; in the assay with DU-145 prostate, 24.4 µM; with HOP-62 NSCLC it was 42 µM.

In the case of `C/C(=C/CO[Si](C)(C)C(C)(C)C)C(=O)N(C)c1ccccc1I`, the TGI in the assay on UACC-62 melanoma came out at 28 µM; with SK-MEL-2 melanoma it was 30.5 µM; in the assay on MDA-MB-231 breast it was 28.3 µM; with CAKI-1 renal it was 29.9 µM; in the assay on HOP-92 NSCLC it was 22.5 µM; in the assay with SF-295 CNS, 31.5 µM. Further, the TGI with SK-MEL-5 melanoma is 29 µM; in the assay on SN12C renal, 31.1 µM; in the assay on DU-145 prostate, 36.7 µM; in the assay with HOP-62 NSCLC it was 36.5 µM.

With `CN(CCc1ccc(Cl)c(Cl)c1)[C@H]1CCCC[C@H]1N1CCCC1`, the TGI with UACC-62 melanoma, in the assay with SK-MEL-2 melanoma, in the assay on MDA-MB-231 breast, in the assay with CAKI-1 renal, in the assay with HOP-92 NSCLC and with SF-295 CNS was > 100 µM in each case. In addition, the TGI in the assay on SK-MEL-5 melanoma, in the assay on SN12C renal, in the assay with DU-145 prostate and in the assay with HOP-62 NSCLC was > 100 µM in each case.
